Test results reported in PubChem BioAssay AID179 (DTP/NCI, 2004).
Calls of active or inactive are those of the source.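 The calls were made as follows: active = compounds giving half or more protection of infected cells from virus-caused growth loss, again on retest; inactive = the rest.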 Where a SMILES comes first, the peptide text is derived from it.

System: CEM cells HIV-1 protection, formazan growth assay
Test: NCI AIDS Antiviral Assay
Settings: for IC50: measured here: growth of uninfected CEM cells
In short: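 Category rules: moderately active means at least 50% protection on retest, and confirmed active means 100% protection reproducibly. The underlying data came from a formazan growth assay in HIV-1-infected CEM cells.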

Structure (SMILES)	outcome	EC50	IC50
O=[N+]([O-])c1nccn1CCCNc1c2ccccc2nc2ccccc12	inactive		
N#C/C1=C(\C#N)CCC2(C#N)C3C=CC(O3)C2(C#N)CC1 (centres undefined)		> 295 µM	34.7 µM
NC(Cc1ccc(OCc2ccccc2)cn1)C(=O)OCc1ccccc1 (centres undefined)		> 200 µM	> 200 µM
CCCc1c(C(=O)OCC)[nH]c(C(=O)CCC(=O)c2[nH]c(C(=O)OCC)c(CCC)c2C(=O)OCC)c1C(=O)OCC		> 17 µM	> 17 µM
O=C(CC/C=C(/CS(=O)(=O)c1ccccc1)S(=O)(=O)c1ccccc1)c1ccccc1		> 100 µM	> 100 µM
CN(C)c1cc(CN(CCSS(=O)c2ccccc2[N+](=O)[O-])S(=O)c2ccccc2[N+](=O)[O-])nc(CN(CCSS(=O)c2ccccc2[N+](=O)[O-])S(=O)c2ccccc2[N+](=O)[O-])c1 (centres undefined)		> 100 µM	> 100 µM
CC1(C)/C(=N\Nc2ccc([N+](=O)[O-])cc2[N+](=O)[O-])C2CCC1C2 (centres undefined)		> 200 µM	> 200 µM
CCN1C[C@]2(OC(=O)c3ccccc3NC(C)=O)CCC(OC)C34[C@@H]1[C@@](O)(C[C@@H]32)[C@@]1(O)C[C@H](OC)[C@@H]2C[C@@H]4[C@]1(O)C2OC (some centres undefined)	inactive		
O=C(O)c1ccc(CS(=O)c2ccc([N+](=O)[O-])cc2)c([N+](=O)[O-])c1 (centres undefined)		> 708 µM	501 µM
O=c1c2cccnc2ncn1CCCN1CCCC1	inactive		
O=C1OCCN1CCO		> 200 µM	> 200 µM
Cc1c(Cl)nc(Nc2nc3ccccc3[nH]2)nc1Cl	inactive		
O=[N+]([O-])c1ccc(-c2ccc(-c3csc(Nc4ccccc4)n3)o2)cc1		> 37.2 µM	6.76 µM
Cc1ccc(C)c(N2C(=O)C(=O)c3c(C)ccc(C)c32)c1		> 200 µM	33.1 µM
COc1ccc(N=N/C(=N/NC(=O)c2cc(Cl)ccc2C(=O)c2ccccc2)c2ccc(N(CCC#N)CCC#N)cc2C)cc1		> 100 µM	14.1 µM
CC(C)CCC[C@@H](C)[C@H]1CC[C@H]2[C@@H]3CC[C@H]4C[C@@H](CCC=C(c5cc(Cl)c(OCc6ccccc6C(=O)O)c(C(=O)O)c5)c5cc(Cl)c(OCc6ccccc6C(=O)O)c(C(=O)O)c5)CC[C@]4(C)[C@H]3CC[C@]12C		67.6 µM	> 200 µM
COC1/C=C/OC2(C)Oc3c(C)c(O)c4c(O)c(cc(OCC(=O)N5CCC(O)(Cc6ccccc6)CC5)c4c3C2=O)NC(=O)/C(C)=C/C=CC(C)C(O)C(C)C(O)C(C)C(OC(C)=O)C1C (centres undefined)		> 112 µM	30.9 µM
Nc1nc(N)c2nc(CNc3ccc(C(=O)NC(CCC(=O)O)C(=O)O)cc3F)cnc2n1 (centres undefined)		> 200 µM	0.0631 µM
CN/N=C(\C(=O)Nc1ccc([N+](=O)[O-])cc1[N+](=O)[O-])C1NC(=O)NC1=O (centres undefined)		> 66.1 µM	> 66.1 µM
CCSC(CCCC1OCC2OC(n3cc(C)c(=O)[nH]c3=O)CC2N1O)SCC (centres undefined)		> 200 µM	135 µM
O=C(c1ccco1)N(Cc1ccco1)C(=S)Nc1ccccc1		> 200 µM	12 µM

Structure (SMILES)	outcome	EC50	IC50
CC(C)CC(NC(=O)C(Cc1cnc[nH]1)NC(=O)C(CC(N)=O)NC(=O)C(NC(=O)C(CO)NC(=O)C(Cc1ccc(O)cc1)NC(=O)C(CO)NC(=O)C(C)N)C(C)O)C(=O)O (centres undefined) (H-ASYSTNHL-OH; configuration not given here)		> 70.8 µM	> 70.8 µM
O=C(Nc1ccc(Cl)cc1)NS(=O)(=O)c1coc2ccccc2c1=O		> 200 µM	93.3 µM
CCCCCCCCCCCCCCCCCCNC(=S)/N=C\C1=C(O)c2ccccc2C1=O		> 200 µM	36.3 µM
N#CC1=C(N)Oc2cc(O)cc(O)c2C1c1ccccc1 (centres undefined)		> 200 µM	> 100 µM
CCCCCC/C=C\CCCCCCCCCC1=C(CN2CCN(C)CC2)C(=O)C=C(OC)C1=O		> 200 µM	1 µM
COc1cc(C(c2ccc3c(c2)OCO3)C2SCCCS2)cc(OC)c1OC (centres undefined)		> 200 µM	0.871 µM
O=c1oc2ccccc2n1Cc1ccc(Cl)cc1		> 200 µM	79.4 µM
CCN(CC)C(=S)SS(=O)(=O)c1ccc(F)cc1		> 200 µM	18.6 µM
N#C/C(=C\c1ccc(O)c(O)c1)C(=O)NCCCCCCNC(=O)/C(C#N)=C/c1ccc(O)c(O)c1		> 200 µM	> 200 µM
Nc1ncnc2c1ncn2C1OC(COP(=O)(O)O)C(O)C1O (centres undefined)		> 200 µM	> 200 µM
CC(C)CC(=O)[O-].CC(C)CC(=O)[O-].N.N.N.N.[Co+3].[O-][Cl+3]([O-])([O-])[O-]	inactive		
CS1(C)=Nc2c([N+](=O)[O-])cc([N+](=O)[O-])cc2S(=O)(=O)N=1		> 112 µM	58.9 µM
CCOc1ccc(N=Cc2ccc3ccccc3n2)cc1	inactive		
NC1=C(O)c2ccccc2C(=O)C1=O	inactive		
CC1=COC(=O)c2ccccc2N1		> 537 µM	141 µM
O=c1c2ccccc2c2nccc3c4ccccc4n1c32		> 37.2 µM	> 37.2 µM
COc1ccc(/C=N/O)cc1OC		> 1380 µM	776 µM
Cc1ccc(N2C=Nn3c(nc4sc5c(c4c3=O)CCCC5)C2)cc1		25.1 µM	42.7 µM
CN1C(=O)C2CCC(=O)N2c2cccnc21 (centres undefined)		> 200 µM	> 200 µM
O=C(c1ccccc1)N1CCN2CCN=C(c3ccccc3)C21c1ccccc1 (centres undefined)		> 132 µM	> 132 µM
CC1CCSC(N(C(=O)N(C)c2ccccc2)c2ccccc2)=N1 (centres undefined)		> 741 µM	724 µM

Structure (SMILES)	outcome	EC50	IC50
O=C(/C=C/c1ccc(O)c(O)c1)OCCCc1ccccc1		> 200 µM	5.01 µM
CCCCCCC1=C(O)C(=O)C(CCCCCC)=C(O)C1=O		> 69.2 µM	11.7 µM
Cc1ccc(N=Nc2c(C)nn(-c3ccccc3)c2-c2ccccc2)c(Br)c1	inactive		
COc1ccc(NC(=S)Nc2cc(C)cc(C)n2)cc1		> 200 µM	> 200 µM
CCOC(=O)Cc1csc(Nc2ccc(OCC)cc2)n1		> 214 µM	145 µM
CC(C)SC1SCC2C(=O)N(C)C3(CC3C)C(=O)OCC(NC(=O)c3nc4ccccc4cc3O)C(=O)NC(C)C(=O)N(C)C1C(=O)N(C)C1(CC1C)C(=O)OCC(NC(=O)c1nc3ccccc3cc1O)C(=O)NC(C)C(=O)N2C (centres undefined)		> 11.2 µM	0.00363 µM
O=C(CC(c1ccccc1)C1C(=O)C12CCCC2)c1ccccc1 (centres undefined)		> 81.3 µM	> 81.3 µM
C/C(=N\N=C(\N)OB(F)F)c1ccccn1		> 200 µM	141 µM
CC(=O)C1=C(O)C2(O)C(=O)c3c(c(C)c4ccc(C)c(O)c4c3O)CC2C(N)C1=O (centres undefined)		> 53.7 µM	3.55 µM
CC1C(N2CCCCC2)N(C(=O)c2ccccc2)SC12c1ccccc1-c1ccccc12 (centres undefined)		> 42.7 µM	> 42.7 µM
CCOC(=O)C1(O)Nc2ncncc2N(C)C1=O (centres undefined)		> 200 µM	> 200 µM
NS(=O)(=O)c1cc(=O)[nH]c(=O)[nH]1		> 457 µM	251 µM
CN(/N=C/c1ccnc2ccccc12)c1ccc(Cl)cc1[N+](=O)[O-]		> 100 µM	12.3 µM
O=C1NC(=O)/C(=C\c2ccncc2)N1		> 200 µM	> 200 µM
Cn1c2ccccc2c2c3c(ccc21)C(=O)c1ccccc1C3=O		> 17 µM	> 17 µM
O=C1[C@@H]2C[C@@H](O)CN2C(=O)c2ccccc2N1CCCO	inactive		
CC(=O)NC1C(OCc2ccccc2)OC(CO)C(O)C1OCC(=O)NC(C)C(=O)NC(CCC(=O)NCCCCNc1ccc([N+](=O)[O-])c2[nH]c3ccccc3c(=O)c12)C(N)=O (centres undefined)		81.3 µM	> 100 µM
Cc1cn(CC2OCC(CO)O2)c(=O)[nH]c1=O (centres undefined)		> 1290 µM	1100 µM
S=c1[nH]nc2nc(Nc3ccccc3)nc(Nc3ccccc3)n12		> 21.4 µM	> 21.4 µM
Cc1cc(=O)c2c(O)cc3c(c2o1)CC=C(COC1OC(COC2OC(CO)C(O)C(O)C2O)C(O)C(O)C1O)CO3 (centres undefined)		> 417 µM	> 417 µM
COC1C(OC(=O)/C=C/C=C/C=C/C=C/C(=O)O)CCC2(CO2)C1C1(C)OC1CC=C(C)C (centres undefined)		> 0.2 µM	0.178 µM

Structure (SMILES)	outcome	EC50	IC50
O=C1NC2(CCN(CCCC3(c4ccc(F)cc4)OCCO3)CC2)Oc2ccccc21		> 100 µM	> 100 µM
OC1CCN(Cc2ccccc2)C[C@@H]1CNC12CC3CC(CC(C3)C1)C2 (some centres undefined)		> 100 µM	93.3 µM
CN1CCN(c2c(C(=O)Nc3ccc([N+](=O)[O-])cc3)cc([N+](=O)[O-])cc2[N+](=O)[O-])CC1		> 200 µM	> 100 µM
C[C@H]1Oc2c3c(c4c(c2C(=O)[C@@H]1C)OCC=C4)OCC=C3		> 200 µM	89.1 µM
O=CCCCCCOCc1ccccc1		> 200 µM	3.47 µM
COC1=Nc2ccccc2S(=O)(=O)C=C1		> 398 µM	0.813 µM
CCCCc1ccc(C#CC#Cc2ccc(CCCC)s2)s1		> 200 µM	> 200 µM
COc1ccc(CC#N)c(OCc2ccccc2)c1		> 53.7 µM	17.8 µM
Nc1c(Cl)ncnc1NCC1(CO)CCC1		> 200 µM	158 µM
Cc1cc(Cl)ccc1NC(=O)/C(CC(=O)CC(c1ccccc1)c1c(O)c2ccccc2oc1=O)=N\O (centres undefined)		> 132 µM	95.5 µM
CC1CCc2c(c(CC3CC(=O)NC(=O)C3)nn2-c2ccccc2)C1 (centres undefined)		> 200 µM	> 200 µM
OC1(C2(O)CCC2)CCC1		> 200 µM	> 200 µM
Cc1cn(C2CC(OC=O)C(CO)O2)c(=O)[nH]c1=O (centres undefined)		> 5750 µM	61.7 µM
Cc1ccc(C2(O)CSC(=NC34CC5CC(CC(C5)C3)C4)N2C(P(=O)(O)O)P(=O)(O)O)cc1 (centres undefined)		> 200 µM	40.7 µM
COc1cc2cnc3c4cc(OC)c(OC)cc4ccc3c2cc1OC	inactive		
O=c1onc(-c2ccccc2)c2ccccc12		> 162 µM	> 162 µM
COC1(OC)C=CC2C1C1C=CC2C1(OC)OC (centres undefined)		> 200 µM	> 200 µM
ClCCCCOC1CCCCO1 (centres undefined)	inactive		
COn1c2ccccc2c2c1cc1ccccc1[n+]2[O-]		> 67.6 µM	31.6 µM
CC1(C)OCC2OC3(CO)NP(=O)(N(CCCl)CCCl)OC3C2O1 (centres undefined)	inactive		
